Results: US7674823B2, “DNA-PK inhibitors” (Cancer Research Technology Limited, priority 2001, dated 2010)
Like-named read-outs stand apart in the source and are kept apart here.

Assays:
PI 3-kinase (p110α/p85α) [1] = experiment: PI 3-kinase inhibition assay; type: biochemical; conditions: selectivity ratio from the IC50s for PI 3-kinase and DNA-PK
Description: (§1) In order to assess the inhibitory action of the compounds against PI 3-kinase in vitro, the following assay was used to determine IC50 values.
(§2) Baculoviral recombinant GST-fused PI 3-kinase (p110α/p85α) was purified from Sf9 insect cells using GSH-sepharose affinity chromatography as described (Wymann, M. T et al., (1996) Wortmannin inactivates phosphoinositide 3-kinase by covalent modification of Lys-802, a residue involved in the phosphate transfer reaction. Mol. Cell Biol. 16:1722-1733). PI 3-kinase (1 μl) was diluted in reaction buffer (89 μl of 50 mM Hepes pH 7.5, 150 mM NaCl, 0.1 mM Sodium Orthovanadate, containing 20 μg of phosphatidylinositol) and varying concentrations of inhibitor compound added. […] Reactions were incubated for a further 20 minutes at 37° C., before quenching with the addition of 400 μl of chloroform/methanol (1:1). Reactions were acidified by the addition of 200 μl of 1M HCl, before separation of the organic and aqueous phases by centrifugation at 10,000 g for 30 seconds. The organic phase was transferred to a fresh tube and washed twice with 150 μl of 1M hydrochloric acid/methanol (1:1), discarding the aqueous phase. The washed reaction product was then placed in a white 96-well plate with 100 μl of scintillation fluid and transferred to a TopCount NXT for scintillation counting. Counts per minute, following a one minute counting time, were recorded for each reaction. The inhibition of PI 3-kinase activity by compounds was calculated as described above for the DNA-PK assay.
(§3) The selectivity was determined by the following equation: […]

HeLa cells = experiment: Enhancement Ratio: cell growth inhibition (SRB assay) after 2 Gy irradiation; type: cell-based; conditions: inhibitor 25 μM
Protocol: DNA-PK inhibitors were used at a fixed concentration of 25 micromolar. Radiation was delivered by a Faxitron 43855D X-ray system at a dose rate of 1Gy per minute The Enhancement ratio at 2 Gy irradiation was calculated from the formula: [formula] Cell growth was assessed using the sulforhodamine B (SRB) assay (Skehan, P., Storung, R., Scudiero, R., Monks, […]., Kenny, S. and Boyd, M. R. (1990) New calorimetric cytotoxicity assay for anticancer-drug screening. J. Natl. Cancer Inst. 82:1107-1112). 400 HeLa cells were seeded into each well of a flat-bottomed 48-well microtiter plate in a volume of 200 μl and incubated for 6 h at 37° C. […] Cells were allowed to grow for a further 1 h before irradiation or mock irradiation. Cells untreated with DNA-PK inhibitor or unirradiated were used as a control. Cells treated with DNA-PK inhibitor alone were used to assess the growth inhibition by the DNA-PK inhibitor. Cells were left for a further 16 h before replacing the media and allowing the cells to grow for a further 6 days at 37° C. The media was then removed and the cells fixed with 200 μl of ice cold 10% (w/v) trichloroacetic acid. The plates were incubated at 4° C. for 20 minutes and then washed four times with water. Each well of cells was then stained with 200 μl of 0.4% (w/v) SRB in 1% acetic acid for 20 minutes before washing four times with 1% acetic acid. Plates were then dried for 2 h at room temperature. The dye from the stained cells was solubilized by the addition of 100 μl of 10 mM Tris Base into each well. Plates were gently shaken and left at room temperature for 30 minutes before measuring the optical density at 564 nm on a Microquant microtiter plate reader.

ATM protein [2] = biological target: T1, ATM protein (Homo sapiens, UniProt Q13315); experiment: ATM inhibition assay (immunoprecipitated ATM, GSTp53N66 substrate); type: biochemical
T1 construct: ATM protein was immunoprecipitated from HeLa cell nuclear extract; endogenous in cells; host or cells: HeLa cell nuclear extract (immunoprecipitate)
T1 sequence (Q13315 whole entry): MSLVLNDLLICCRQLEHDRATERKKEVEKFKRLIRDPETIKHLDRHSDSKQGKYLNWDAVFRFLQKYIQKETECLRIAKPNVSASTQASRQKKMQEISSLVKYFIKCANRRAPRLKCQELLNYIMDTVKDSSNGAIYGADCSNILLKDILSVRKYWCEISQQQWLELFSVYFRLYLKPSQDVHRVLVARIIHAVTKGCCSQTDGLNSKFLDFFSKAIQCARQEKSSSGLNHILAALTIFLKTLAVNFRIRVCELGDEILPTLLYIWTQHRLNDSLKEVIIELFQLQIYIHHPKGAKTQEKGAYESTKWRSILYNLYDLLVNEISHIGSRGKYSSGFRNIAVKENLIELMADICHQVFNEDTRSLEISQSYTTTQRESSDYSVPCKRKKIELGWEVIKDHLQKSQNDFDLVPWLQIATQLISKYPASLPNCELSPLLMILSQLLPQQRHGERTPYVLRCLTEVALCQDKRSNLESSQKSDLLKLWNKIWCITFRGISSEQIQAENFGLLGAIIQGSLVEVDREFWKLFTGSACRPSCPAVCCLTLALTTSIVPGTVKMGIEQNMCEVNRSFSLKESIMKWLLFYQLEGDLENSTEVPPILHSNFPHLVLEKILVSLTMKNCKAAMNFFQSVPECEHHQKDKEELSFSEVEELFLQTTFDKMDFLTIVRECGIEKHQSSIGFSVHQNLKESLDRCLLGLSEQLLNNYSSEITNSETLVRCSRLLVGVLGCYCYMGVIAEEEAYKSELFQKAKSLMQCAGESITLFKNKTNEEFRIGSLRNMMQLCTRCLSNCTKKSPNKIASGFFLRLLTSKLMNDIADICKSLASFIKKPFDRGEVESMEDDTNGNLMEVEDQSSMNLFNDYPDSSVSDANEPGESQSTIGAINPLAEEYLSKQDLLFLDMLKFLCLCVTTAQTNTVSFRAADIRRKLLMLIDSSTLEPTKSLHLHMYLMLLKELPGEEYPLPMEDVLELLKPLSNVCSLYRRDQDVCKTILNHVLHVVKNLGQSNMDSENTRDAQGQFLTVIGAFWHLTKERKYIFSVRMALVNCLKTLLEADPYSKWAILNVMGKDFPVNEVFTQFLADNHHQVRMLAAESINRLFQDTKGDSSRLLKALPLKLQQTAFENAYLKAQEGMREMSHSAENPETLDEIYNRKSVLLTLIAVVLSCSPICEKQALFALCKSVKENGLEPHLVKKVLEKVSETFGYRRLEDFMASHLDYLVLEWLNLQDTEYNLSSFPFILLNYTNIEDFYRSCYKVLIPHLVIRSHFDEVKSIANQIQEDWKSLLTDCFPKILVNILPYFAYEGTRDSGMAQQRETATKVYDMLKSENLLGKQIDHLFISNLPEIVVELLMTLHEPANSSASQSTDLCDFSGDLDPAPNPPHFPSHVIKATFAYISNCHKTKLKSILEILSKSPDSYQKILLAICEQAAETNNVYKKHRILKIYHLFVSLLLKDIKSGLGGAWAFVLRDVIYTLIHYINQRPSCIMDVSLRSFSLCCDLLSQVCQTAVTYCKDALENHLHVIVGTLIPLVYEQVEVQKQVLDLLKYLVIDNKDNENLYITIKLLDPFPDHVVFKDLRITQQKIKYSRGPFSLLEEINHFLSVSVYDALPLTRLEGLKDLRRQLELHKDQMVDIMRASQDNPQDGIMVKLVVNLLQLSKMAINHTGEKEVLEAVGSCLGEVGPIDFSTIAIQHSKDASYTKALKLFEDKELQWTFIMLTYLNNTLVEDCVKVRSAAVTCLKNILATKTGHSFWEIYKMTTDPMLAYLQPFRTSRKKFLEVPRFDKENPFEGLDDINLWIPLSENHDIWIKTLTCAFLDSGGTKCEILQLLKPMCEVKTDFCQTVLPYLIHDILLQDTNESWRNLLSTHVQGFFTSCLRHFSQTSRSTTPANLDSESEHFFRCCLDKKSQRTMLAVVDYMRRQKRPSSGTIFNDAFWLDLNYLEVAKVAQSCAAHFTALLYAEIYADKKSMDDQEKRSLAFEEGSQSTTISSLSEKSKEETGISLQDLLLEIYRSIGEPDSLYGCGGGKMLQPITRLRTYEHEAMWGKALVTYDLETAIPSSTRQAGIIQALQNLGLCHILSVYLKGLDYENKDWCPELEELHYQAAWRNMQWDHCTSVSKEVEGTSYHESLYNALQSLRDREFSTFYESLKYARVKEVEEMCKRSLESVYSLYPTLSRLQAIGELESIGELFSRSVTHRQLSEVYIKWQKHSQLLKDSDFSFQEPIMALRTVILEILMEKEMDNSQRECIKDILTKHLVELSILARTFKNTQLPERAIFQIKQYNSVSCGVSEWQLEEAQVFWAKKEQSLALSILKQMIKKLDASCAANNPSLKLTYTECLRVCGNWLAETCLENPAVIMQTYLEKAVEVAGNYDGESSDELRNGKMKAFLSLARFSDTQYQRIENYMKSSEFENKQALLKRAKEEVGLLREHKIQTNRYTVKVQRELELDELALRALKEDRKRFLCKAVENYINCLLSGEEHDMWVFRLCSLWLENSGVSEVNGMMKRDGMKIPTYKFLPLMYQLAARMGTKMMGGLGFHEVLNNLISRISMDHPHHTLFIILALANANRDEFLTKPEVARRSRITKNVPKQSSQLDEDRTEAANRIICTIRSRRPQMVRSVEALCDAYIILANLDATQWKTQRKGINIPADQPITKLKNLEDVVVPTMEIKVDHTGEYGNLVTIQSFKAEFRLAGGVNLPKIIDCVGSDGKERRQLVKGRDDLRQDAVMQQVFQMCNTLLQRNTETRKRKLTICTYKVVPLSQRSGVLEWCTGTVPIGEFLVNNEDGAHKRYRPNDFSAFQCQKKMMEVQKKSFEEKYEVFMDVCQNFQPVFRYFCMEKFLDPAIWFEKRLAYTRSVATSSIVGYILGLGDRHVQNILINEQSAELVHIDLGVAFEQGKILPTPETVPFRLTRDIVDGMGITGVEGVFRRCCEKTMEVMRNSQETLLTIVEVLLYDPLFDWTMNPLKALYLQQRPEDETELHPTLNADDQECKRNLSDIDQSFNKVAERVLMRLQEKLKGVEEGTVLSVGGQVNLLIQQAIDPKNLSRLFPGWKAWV
Protocol: (§4) In order to assess the inhibitory action of the compounds against ATM in vitro, the following assay was used to determine IC50 values.
(§5) ATM protein was immunoprecipitated from HeLa cell nuclear extract using rabbit polyclonal antisera raised to the C-terminal ˜500 amino-acid residues of the human ATM protein. The immunoprecipitation was performed according to the methodology described by Banin, S. et al. (1998) Enhanced phosphorylation of p53 by ATM in response to DNA damage. Science 281:1674-1677. 10 μl of immunoprecipitated ATM in Buffer C (50 mM Hepes, pH 7.4, 6 mM MgCl2, 150 mM NaCl, 0.1 mM sodium orthovanadate, 4 mM MnCl2, 0.1 mM dithiothreitol, 10% glycerol) was added to 32.5 μl of buffer C containing 1 μg of the ATM substrate GSTp53N66 in a V-bottomed 96 well polypropylene plate. The GSTp53N66 substrate is the amino terminal 66 amino acid residues of human wild type p53 fused to glutathione S-transferase. ATM phosphorylates p53 on the residue serine 15 (Banin, S. et al. (1998) Enhanced phosphorylation of p53 by ATM in response to DNA damage. Science 281:1674-1677). Varying concentrations of inhibitor were then added. […] After 10 minutes of incubation at 37° C., the reactions were initiated by the addition of 5 μl of 50 μM Na-ATP. After 1 h with shaking at 37° C., 150 μl of phosphate buffered saline (PBS) was added to the reaction and the plate centrifuged at 1500 rpm for 10 minutes. 5 μl of the reaction was then transferred to a 96 well opaque white plate containing 45 μl of PBS to allow the GSTp53N66 substrate to bind to the plate wells. The plate was covered and incubated at room temperature for 1 h with shaking before discarding the contents. The plate wells were washed twice by the addition of PBS prior to the addition of 3% (w/v) bovine serum albumin (BSA) in PBS. The plate was incubated at room temperature for 1 h with shaking before discarding the contents and washing twice with PBS. To the wells, 50 μl of a 1:10,000 dilution of primary phosphoserine-15 antibody (Cell Signaling Technology, #9284L) in 3% BSA/PBS was added to detect the phosphorylation event on the serine 15 residue of p53 elicited by the ATM kinase. After 1 h of incubation at room temperature with shaking, the wells were washed four times with PBS prior to the addition of an anti-rabbit HRP conjugated secondary antibody (Pierce, 31462) with shaking for 1 h at room temperature. The wells were then washed four times with PBS before the addition of chemiluminescence reagent (NEN Renaissance, NEL105). The plate was then shaken briefly, covered with a transparent plate seal and transferred to a TopCount NXT for chemiluminescent counting. Counts per second, following a one second counting time, were recorded for each reaction. The inhibition of ATM activity by compounds was calculated as described above for the DNA-PK assay.
as §3

ATM protein [3] = experiment: as above; type: biochemical, human; conditions: selectivity ratio from the IC50s for ATM and DNA-PK
Protocol: as §4, §5, §3

[4] = biological target: T2, Mammalian DNA-PK, isolated from Hela cell nuclear extract (Homo sapiens, UniProt P78527); experiment: DNA-PK inhibition assay (33P-ATP, filter binding); type: biochemical
T2 construct: Mammalian DNA-PK, isolated from Hela cell nuclear extract; endogenous in cells; host or cells: HeLa cell nuclear extract (purified per Gell and Jackson 1999)
In short: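 DNA-PK from HeLa nuclear extract preincubated with compound 10 min at 30 °C, then started with 50 μM Na-ATP final, ^33P-γATP and 30mer dsDNA (10 ng/μl), run 45 min at 30 °C.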

PI 3-kinase (p110α/p85α) [5] = biological target: T3, PI 3-kinase (p110α/p85α) (UniProt P32871); experiment: PI 3-kinase inhibition assay; type: biochemical; conditions: GST-fused p110α/p85α
T3 construct: other: GST-fused p110α/p85α
Description: as §1, §2, §3

PI 3-kinase = conditions: stated to be the same as for DNA-PK; cited from earlier work
cells = conditions: literature; cited from earlier work
[6] = IC50 of less than about 1 μM and/or % inhibition of more than about 50 at 1 μM, read-out: DNA-PK inhibition IC50 (particular efficacy)
[7] = concentration at which 50% of the enzyme activity is inhibited, read-out: DNA-PK Inhibition IC50

| SMILES | Δ(DNA-PK/PI 3-K) (PI 3-kinase (p110α/p85α) [1]) | IC50 (ATM protein [2]) [nM] | IC50 [4, 6] [nM] | IC50 [4, 7] [nM] | IC50 (PI 3-kinase (p110α/p85α) [5]) [nM] | melting point [°C] | Enhancement Ratio (ER) (HeLa cells) | Δ(DNA-PK/ATM) (ATM protein [3]) | IC50 (PI 3-kinase) [nM] | sensitisation of cells to the effects of IR (cells) |
| --- | --- | --- | --- | --- | --- | --- | --- | --- | --- | --- |
| O=c1cc(N2CCOCC2)oc2cc(OCc3ccc(F)cc3)ccc12 [Compound 414, 7-(4-Fluoro-benzyloxy)-2-morpholin-4-yl-chromen-4-one] |  | > 100000 |  | 1500 | 95000 |  | 1.69 |  |  |  |
| O=c1cc(N2CCOCC2)oc2cc(OCc3ccc(Cl)cc3)ccc12 [Compound 415, 7-(4-chlorobenzyloxy)-2-(morpholin-4-yl)-chromen-4-one] | >200 | > 100000 | < 1000 | 500 | > 100000 |  | 1.86 | >200 |  |  |
| O=c1cc(N2CCOCC2)oc2cc(OCc3ccc(Br)cc3)ccc12 [Compound 416, 7-(4-Bromobenzyloxy)-2-morpholin-4-yl-chromen-4-one] |  | > 100000 | < 1000 | 600 |  | 221 to 222 | 1.32 | >167 |  |  |
| O=c1cc(N2CCOCC2)oc2c(-c3ccccc3)cccc12 [LY294002] |  |  |  |  |  |  |  |  | ~1000 | weakly sensitise |

Second part, led by results:

| Δ(DNA-PK/PI 3-K) (PI 3-kinase (p110α/p85α) [1]) | IC50 (ATM protein [2]) [nM] | IC50 [4, 6] [nM] | IC50 [4, 7] [nM] | IC50 (PI 3-kinase (p110α/p85α) [5]) [nM] | melting point [°C] | SMILES | Enhancement Ratio (ER) (HeLa cells) | Δ(DNA-PK/ATM) (ATM protein [3]) | IC50 (PI 3-kinase) [nM] | sensitisation of cells to the effects of IR (cells) |
| --- | --- | --- | --- | --- | --- | --- | --- | --- | --- | --- |
| >143 | > 100000 | < 1000 | 350 |  |  | O=c1cc(N2CCOCC2)nc2c3ccccc3ccn12 [Compound 5, 2-morpholin-1-yl-pyrimido-[2,1-a]isoquinolin-4-one] | 1.63 | >286 |  |  |
| 50 | > 100000 | < 1000 | 400 | 20000 |  | O=c1cc(N2CCOCC2)oc2c1ccc1ccccc12 [Compound 293, 2-(morpholin-4-yl)-benzo[h]chromen-4-one] | 1.7 | >250 |  |  |
|  | > 100000 | < 1000 | 650 |  |  | O=c1cc(N2CCOCC2)oc2cc(OCc3ccccc3)ccc12 [Compound 337, 7-Benzyloxy-2-morpholin-4-yl-chromen-4-one] | 1.12 | >154 |  |  |
